# No end group written: not given here.
# Tested on: ACTH-induced serum corticosterone in dexamethasone-suppressed mice
# Experiment: in vivo Serum Corticosteroid Inhibition Assay
# Parameters: species or system FVB/N mice
# Conditions: for reduction in serum corticosterone levels: ACTH alone = 100%; for serum corticosterone level at 180 minutes: blood one hour later; for corticosterone induction as percent of that of wildtype ACTH: 1 hour after last injection
# Description: An in vivo Serum Corticosteroid Inhibition Assay measures the level of corticosteroid or corticosterone in the blood stream of a subject after administering a compound having a first corticosteroid-producing biological activity and a test compound. The compound having the corticosteroid-producing biological activity can be any compound known to induce a detectable increase in corticosteroid production. The test compound can be administered before the corticosteroid-producing compound, in combination with the corticosteroid-producing compound, and/or after the corticosteroid-producing compound. The corticosteroid-producing compound is preferably ACTH, but can also be an ACTH analog with a known corticosteroid-producing biological activity. By performing a series of in vivo Serum Corticosteroid Inhibition Assays using ACTH analog test compounds, ACTH analogs that inhibit the production of corticosteroid relative to the corticosteroid-producing compound used can be identified. Preferably, the ACTH analogs identified in this manner inhibit the production of corticosteroid in the presence of endogenous unmodified ACTH.
# The in vivo Serum Corticosteroid Inhibition Assay can include sequential administration of the test compound and the corticosteroid-producing compound by the following steps: first, an agent to suppress endogenous ACTH production was administered to a mouse subject, such as an intraperitoneal injection of dexamethasone; second, after waiting a suitable period of time for suppression of endogenous ACTH production (e.g., 1.5–2.0 hours), a test compound was administered to the mouse by a suitable method, such as intraperitoneal injection; third, after waiting a suitable period of time (e.g., 1 hour) for action of the test compound, a compound with corticosteroid-producing activity can be administered to the mouse by a suitable method, such as intraperitoneal injection; and fourth, after waiting a suitable period of time for the biological activity of both administered compounds to occur (e.g., 1 hour), a blood sample was taken from the subject and the level of serum corticosterone was determined by a suitable method, such as a competitive radioimmunoassay using ^125I RIA kit (ICN, Costa Mesa, Calif.). Optionally, steps two and three can be reversed (administering the corticosteroid-producing compound first, followed by administration of the test compound). The in vivo Serum Corticosteroid Inhibition Assay can also include co-administration of the test compound and the corticosteroid-producing compound by the following steps: first, an agent to suppress endogenous ACTH production was administered to a mouse subject, such as an intraperitoneal injection of dexamethasone; second, after waiting a suitable period of time for suppression of endogenous ACTH production (e.g., 1.5–2.0 hours), the corticosteroid-producing compound and a test compound were co-administered to the mouse by a suitable method, such as intraperitoneal injection; and third, after waiting a suitable period of time for the biological activity of both administered compounds to occur (e.g., 1 hour), a blood sample was taken from the subject and the level of serum corticosterone was determined by a suitable method, such as a competitive radioimmunoassay using ^125I RIA kit (ICN, Costa Mesa, Calif.). Also, in some embodiments, the first step in any in vivo Serum Corticosteroid Inhibition Assay can be replaced by a measurement of the initial endogenous corticosteroid or corticosteroid level in the blood of the subject in the manner of step four, instead of administering the agent to suppress ACTH production. Example 2 describes murine in vivo Serum Corticosteroid Inhibition Assays in detail.
# A series of separate in vivo Serum Corticosteroid Inhibition Assays were performed to identify ACTH analogs that inhibit ACTH adrenal hormone production in vivo. […]
substance,measurement,setting,value
N-Ser^1-Tyr-Ser-Met-Glu^5-His-Phe-Arg-Trp-Gly^10-Lys-Pro-Val-Gly-Lys^15-Arg-Ala-Ala-Trp-Val^20-Lys-Val-Tyr-Pro-Ac (SYSMEHFRWGKPVGKRAAWVKVYP; not fully specified (C-terminus); printed as N-Ser1-Tyr-Ser-Met-Glu5-His-Phe-Arg-Trp-Gly10-Lys-Pro-Val-Gly-Lys15-Arg-Ala-Ala-Trp-Val20-Lys-Val-Tyr-Pro-Ac) [AT814],reduction in serum corticosterone levels,ACTH analog 30 minutes before ACTH,~65%
same,serum corticosterone level at 180 minutes,"ACTH analog at 90 minutes, mACTH(1–24) at 120 minutes after dexamethasone, listed as (KKRRP15-19KRAAW) mACTH(1–24)",175 ± 27 ng/mL
same,serum corticosterone level at 180 minutes,"ACTH analog at 90 minutes, mACTH(1–24) at 120 minutes after dexamethasone, listed as (KKRRP15-19KRMW) mACTH(1–24)",175 ± 27 ng/mL
same,reduction in serum corticosterone levels,ACTH analog concurrently with ACTH,~90%
same,serum corticosterone level at 180 minutes,ACTH analog together with mACTH(1–24) at 120 minutes after dexamethasone,51 ± 8 ng/mL
same,serum corticosterone level at 180 minutes,"ACTH analog together with mACTH(1–24) at 120 minutes after dexamethasone, listed as (KKRRP15-19KRAAW) mACTH(1–24)",51 ± 8 ng/mL
same,corticosterone induction as percent of that of wildtype ACTH,applied 30 minutes before the ACTH injection,35%
same,corticosterone induction as percent of that of wildtype ACTH,applied at the same time as the ACTH injection,10%
